# Reference: ChEMBL document CHEMBL1156642, “Discovery of betamethasone 17alpha-carbamates as dissociated glucocorticoid receptor modulators in the rat” (Bioorg Med Chem, 2008)
# Active and inactive are the calls of the source. The calls are words filed in the database; no cut-off is given here.
# Columns and labels:
# [1] = organism: Mus musculus; assay: Inhibition of LPS-induced TNFalpha production in mouse; format: functional
# [2] = test system: Rattus norvegicus; assay: Effect on body weight change in Lewis rat with implanted cotton pellets at 1.0 mg/kg, po bid for 4 days; format: functional
# [3] = test system: Rattus norvegicus; assay: Effect on body weight change in Lewis rat with implanted cotton pellets at 2.5 mg/kg, po bid for 4 days; format: functional
# [4] = test system: Rattus norvegicus; assay: Inhibition of granuloma formation in cotton pellet implanted Lewis rat at 6.0 mg/kg, po bid; format: functional
# [5] = test system: Rattus norvegicus; assay: Effect on adrenal weight in Lewis rat with implanted cotton pellets at 2.5 mg/kg, po bid; format: functional
# [6] = test system: Rattus norvegicus; assay: Effect on adrenal weight in Lewis rat with implanted cotton pellets at 6.0 mg/kg, po bid; format: functional
# [7] = test system: Rattus norvegicus; assay: Effect on body weight change in Lewis rat with implanted cotton pellets at 1.0 mg/kg, po bid for 7 days; format: functional
# [8] = test system: Rattus norvegicus; assay: Inhibition of granuloma formation in cotton pellet implanted Lewis rat at 1.0 mg/kg, po bid; format: functional
# [9] = test system: Rattus norvegicus; assay: Effect on body weight change in Lewis rat with implanted cotton pellets at 2.5 mg/kg, po bid for 7 days; format: functional
# [10] = test system: Rattus norvegicus; assay: Effect on thymus weight in Lewis rat with implanted cotton pellets at 1.0 mg/kg, po bid; format: functional
# [11] = test system: Rattus norvegicus; assay: Effect on spleen weight in Lewis rat with implanted cotton pellets at 2.5 mg/kg, po bid; format: functional
# [12] = test system: Rattus norvegicus; assay: Effect on adrenal weight in Lewis rat with implanted cotton pellets at 1.0 mg/kg, po bid; format: functional
# [13] = test system: Rattus norvegicus; assay: Effect on body weight change in Lewis rat with implanted cotton pellets at 6.0 mg/kg, po bid for 7 days; format: functional
# [14] = test system: Rattus norvegicus; assay: Effect on thymus weight in Lewis rat with implanted cotton pellets at 2.5 mg/kg, po bid; format: functional
# [15] = test system: Rattus norvegicus; assay: Effect on body weight change in Lewis rat with implanted cotton pellets at 6.0 mg/kg, po bid for 4 days; format: functional
# [16] = test system: Rattus norvegicus; assay: Inhibition of granuloma formation in cotton pellet implanted Lewis rat at 2.5 mg/kg, po bid; format: functional
# [17] = test system: Rattus norvegicus; assay: Effect on spleen weight in Lewis rat with implanted cotton pellets at 6.0 mg/kg, po bid; format: functional
# [18] = test system: Rattus norvegicus; assay: Effect on thymus weight in Lewis rat with implanted cotton pellets at 6.0 mg/kg, po bid; format: functional
# [19] = test system: Rattus norvegicus; assay: Effect on spleen weight in Lewis rat with implanted cotton pellets at 1.0 mg/kg, po bid; format: functional
# [20] = test system: Rattus norvegicus; assay: Inhibition of granuloma formation in cotton pellet implanted Lewis rat at 19 mg/kg, po bid; format: functional
# [21] = test system: Rattus norvegicus; assay: Effect on adrenal weight in Lewis rat with implanted cotton pellets at 10 mg/kg, po bid; format: functional
# [22] = test system: Rattus norvegicus; assay: Inhibition of granuloma formation in cotton pellet implanted Lewis rat at 5.0 mg/kg, po bid; format: functional
# [23] = test system: Rattus norvegicus; assay: Effect on spleen weight in Lewis rat with implanted cotton pellets at 19 mg/kg, po bid; format: functional
# [24] = test system: Rattus norvegicus; assay: Inhibition of granuloma formation in cotton pellet implanted Lewis rat at 10 mg/kg, po bid; format: functional
# [25] = test system: Rattus norvegicus; assay: Effect on adrenal weight in Lewis rat with implanted cotton pellets at 5.0 mg/kg, po bid; format: functional
# [26] = test system: Rattus norvegicus; assay: Effect on body weight change in Lewis rat with implanted cotton pellets at 10 mg/kg, po bid for 4 days; format: functional
# [27] = molecular target: T1, Progesterone receptor (Homo sapiens, UniProt P06401); assay: Inhibition of human progesterone receptor
# T1 sequence (P06401 whole entry): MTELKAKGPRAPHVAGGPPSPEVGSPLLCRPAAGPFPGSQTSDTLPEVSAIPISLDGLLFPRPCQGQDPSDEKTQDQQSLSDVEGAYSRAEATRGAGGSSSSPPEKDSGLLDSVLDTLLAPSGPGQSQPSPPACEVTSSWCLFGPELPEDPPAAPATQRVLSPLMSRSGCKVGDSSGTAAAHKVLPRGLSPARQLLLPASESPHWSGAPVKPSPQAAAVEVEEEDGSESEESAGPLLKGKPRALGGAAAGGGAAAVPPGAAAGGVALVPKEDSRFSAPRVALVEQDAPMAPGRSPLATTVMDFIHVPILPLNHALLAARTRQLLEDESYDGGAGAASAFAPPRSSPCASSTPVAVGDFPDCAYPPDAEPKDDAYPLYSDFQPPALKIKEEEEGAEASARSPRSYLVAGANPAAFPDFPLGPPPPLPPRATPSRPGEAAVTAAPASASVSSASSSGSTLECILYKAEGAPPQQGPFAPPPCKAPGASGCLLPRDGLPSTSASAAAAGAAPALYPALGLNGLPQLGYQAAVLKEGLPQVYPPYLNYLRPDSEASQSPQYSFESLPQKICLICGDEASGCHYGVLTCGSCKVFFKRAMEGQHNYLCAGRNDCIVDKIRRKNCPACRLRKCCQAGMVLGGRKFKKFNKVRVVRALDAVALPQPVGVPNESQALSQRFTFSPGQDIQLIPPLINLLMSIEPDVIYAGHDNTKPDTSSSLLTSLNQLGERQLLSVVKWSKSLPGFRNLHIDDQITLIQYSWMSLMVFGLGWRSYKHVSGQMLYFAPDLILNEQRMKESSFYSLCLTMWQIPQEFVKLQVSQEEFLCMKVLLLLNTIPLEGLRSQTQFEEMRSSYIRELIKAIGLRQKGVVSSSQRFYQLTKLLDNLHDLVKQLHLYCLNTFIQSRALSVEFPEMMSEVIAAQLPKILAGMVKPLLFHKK
# [28] = test system: Rattus norvegicus; assay: Effect on thymus weight in Lewis rat with implanted cotton pellets at 10 mg/kg, po bid; format: functional
# [29] = test system: Rattus norvegicus; assay: Effect on body weight change in Lewis rat with implanted cotton pellets at 19 mg/kg, po bid for 4 days; format: functional
# [30] = test system: Rattus norvegicus; assay: Effect on adrenal weight in Lewis rat with implanted cotton pellets at 19 mg/kg, po bid; format: functional
# [31] = test system: Rattus norvegicus; assay: Effect on body weight change in Lewis rat with implanted cotton pellets at 19 mg/kg, po bid for 7 days; format: functional
# [32] = test system: Rattus norvegicus; assay: Effect on plasma glucose level in Lewis rat with implanted cotton pellets at 10 mg/kg, po by oral glucose tolerance test; format: functional, organism-based; set-up: dose 10 mg/kg
# [33] = test system: Rattus norvegicus; assay: Effect on body weight change in Lewis rat with implanted cotton pellets at 5.0 mg/kg, po bid for 4 days; format: functional
# [34] = test system: Rattus norvegicus; assay: Effect on body weight change in Lewis rat with implanted cotton pellets at 5.0 mg/kg, po bid for 7 days; format: functional
# [35] = molecular target: T2, Interstitial collagenase (Homo sapiens) (UniProt P03956); assay: Inhibition of glucocorticoid-mediated human MMP1 expression in PMA stimulated A549 cells assessed as MMP1 protein level by ELISA relative to Dexamethasone; format: cell-based; set-up: scale not given: the % may be the effect or the level left
# T2 sequence (whole entry): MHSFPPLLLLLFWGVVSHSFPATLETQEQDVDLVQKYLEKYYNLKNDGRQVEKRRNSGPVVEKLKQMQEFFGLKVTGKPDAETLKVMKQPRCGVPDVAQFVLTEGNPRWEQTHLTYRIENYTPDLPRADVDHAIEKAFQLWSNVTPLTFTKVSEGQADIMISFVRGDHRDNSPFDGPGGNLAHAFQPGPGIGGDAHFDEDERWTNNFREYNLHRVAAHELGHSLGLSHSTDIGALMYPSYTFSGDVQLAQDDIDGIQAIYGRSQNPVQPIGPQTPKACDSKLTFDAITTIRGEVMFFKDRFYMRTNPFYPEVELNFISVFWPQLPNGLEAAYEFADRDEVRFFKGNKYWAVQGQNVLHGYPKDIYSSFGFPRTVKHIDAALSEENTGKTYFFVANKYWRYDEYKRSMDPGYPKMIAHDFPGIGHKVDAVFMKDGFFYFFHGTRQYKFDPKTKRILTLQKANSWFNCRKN
# [36] = test system: Rattus norvegicus; assay: Effect on spleen weight in Lewis rat with implanted cotton pellets at 10 mg/kg, po bid; format: functional
# [37] = test system: Rattus norvegicus; assay: Effect on thymus weight in Lewis rat with implanted cotton pellets at 19 mg/kg, po bid; format: functional
# [38] = test system: Rattus norvegicus; assay: Effect on thymus weight in Lewis rat with implanted cotton pellets at 5.0 mg/kg, po bid; format: functional
# [39] = test system: Rattus norvegicus; assay: Effect on body weight change in Lewis rat with implanted cotton pellets at 10 mg/kg, po bid for 7 days; format: functional
# [40] = molecular target: T3, Glucocorticoid receptor (Homo sapiens, UniProt P04150)
# T3 sequence (P04150 whole entry): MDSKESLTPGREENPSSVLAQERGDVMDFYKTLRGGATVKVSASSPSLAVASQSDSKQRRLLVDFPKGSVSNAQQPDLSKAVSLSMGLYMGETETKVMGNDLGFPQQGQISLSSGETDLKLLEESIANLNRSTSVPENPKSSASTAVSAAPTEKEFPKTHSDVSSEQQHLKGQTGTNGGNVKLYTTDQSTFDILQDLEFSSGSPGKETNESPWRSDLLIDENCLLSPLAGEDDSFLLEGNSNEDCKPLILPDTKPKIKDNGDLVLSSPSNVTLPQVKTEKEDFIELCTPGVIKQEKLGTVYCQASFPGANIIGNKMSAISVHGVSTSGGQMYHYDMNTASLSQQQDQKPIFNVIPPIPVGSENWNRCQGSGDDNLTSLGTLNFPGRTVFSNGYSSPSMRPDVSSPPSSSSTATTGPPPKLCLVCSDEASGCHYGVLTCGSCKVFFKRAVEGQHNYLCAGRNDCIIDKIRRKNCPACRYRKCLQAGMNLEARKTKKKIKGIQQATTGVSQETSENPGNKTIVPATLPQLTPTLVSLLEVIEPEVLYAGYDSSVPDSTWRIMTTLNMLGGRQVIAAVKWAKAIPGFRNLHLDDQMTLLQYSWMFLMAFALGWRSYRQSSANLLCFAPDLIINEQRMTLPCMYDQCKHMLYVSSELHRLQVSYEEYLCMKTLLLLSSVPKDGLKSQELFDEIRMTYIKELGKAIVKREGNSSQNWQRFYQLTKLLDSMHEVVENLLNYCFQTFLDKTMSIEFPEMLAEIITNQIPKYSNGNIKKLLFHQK
# Description: Inhibition of human glucocorticoid receptor
# [41] = organism: Rattus norvegicus; assay: Transactivation activity of glutamine synthase in rat skeletal muscle cells relative to Dexamethasone; format: cell-based
# [42] = test system: Rattus norvegicus; assay: Effect on plasma glucose level in Lewis rat with implanted cotton pellets at 19 mg/kg, po by oral glucose tolerance test; format: functional, organism-based; set-up: dose 19 mg/kg
# [43] = test system: Rattus norvegicus; assay: Effect on spleen weight in Lewis rat with implanted cotton pellets at 5.0 mg/kg, po bid; format: functional
structure (smiles),measurement,setting,value
C[C@]12C=CC(=O)C=C1CC[C@@H]1[C@@H]2[C@@H](O)C[C@@]2(C)[C@H]1CC[C@]2(O)C(=O)CO [PREDNISOLONE],ED50,[1],0.5 mg/kg
same,Activity,[2],1.5 g
same,Activity,[3],-1 g
same,inhibition in vivo at 6 mg/kg,[4],56.2%
same,Activity,[5],26.9 mg
same,Activity,[6],27.9 mg
same,Activity,[7],3 g
same,inhibition in vivo at 1 mg/kg,[8],37.6%
same,Activity,[9],-0.4 g
same,Activity,[10],219.5 mg
same,Activity,[11],266.8 mg
same,Activity,[12],38.7 mg
same,Activity,[13],-4.1 g
same,Activity,[14],117.8 mg
same,Activity,[15],-3.6 g
same,inhibition in vivo at 2.5 mg/kg,[16],49.3%
same,Activity,[17],260 mg
same,Activity,[18],104 mg
same,Activity,[19],334.7 mg
CCCNC(=O)O[C@]1(C(=O)CO)[C@@H](C)C[C@H]2[C@@H]3CCC4=CC(=O)C=C[C@]4(C)[C@@]3(F)[C@@H](O)C[C@@]21C,inhibition in vivo at 19 mg/kg,[20],51%
same,Activity,[21],34.6 mg
same,inhibition in vivo at 5 mg/kg,[22],32.7%
same,Activity,[23],258 mg
same,inhibition in vivo at 10 mg/kg,[24],40%
same,Activity,[25],34.7 mg
same,Activity,[26],3.9 g
same,IC50,[27],394 nM
same,Activity,[28],91.4 mg
same,Activity,[29],3.9 g
same,Activity,[30],25.6 mg
same,Activity,[31],6.6 g
same,Activity,[32],Active
same,Activity,[33],1.1 g
same,Activity,[34],5 g
same,Activity,[35],103%
same,Activity,[36],274.3 mg
same,Activity,[37],82.9 mg
same,Activity,[38],105.5 mg
same,Activity,[39],7.1 g
same,IC50,[40],3.6 nM
same,Activity,[41],34.7%
same,Activity,[42],Active
same,Activity,[43],296.1 mg
